22 compounds from PubChem BioAssay AID330 (DTP/NCI, 2004) can be followed below.

In this experiment the test system is P388 leukemia ip, CD2F1 mice, survival T/C. Nature of the experiment: NCI In Vivo Anticancer Drug Screen. Data for tumor model P388 Leukemia (intraperitoneal) in CD2F1 (CDF1) mice. The following applies: endpoint: median survival time, higher = longer survival. The gist of the method: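 Mice carrying the transplanted tumor received test compound or vehicle. Survival was recorded in each group, and the value is the treated-group measurement divided by that of the vehicle-treated control group.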

Setting [1] is: dose: 50.0 mg/kg/injection, schedule: Q01DX005 (ip), vehicle: saline with Tween-80.
Where [2] appears, read: dose: 25.0 mg/kg/injection, schedule: Q01DX009 (ip), vehicle: saline with Tween-80.
The mark [3] stands for this setting: dose: 50.0 mg/kg/injection, schedule: Q01DX009 (ip), vehicle: saline with Tween-80.
Where [4] appears, read: dose: 100.0 mg/kg/injection, schedule: Q01DX009 (ip), vehicle: saline with Tween-80.
Setting [5] is: dose: 200.0 mg/kg/injection, schedule: Q01DX009 (ip), vehicle: saline with Tween-80.
Where [6] appears, read: dose: 50.0 mg/kg/injection, schedule: Q01DX005 (ip), vehicle: Klucel (hydroxypropylcellulose) (HPC).
Setting [7] is: dose: 100.0 mg/kg/injection, schedule: Q01DX005 (ip), vehicle: Klucel (hydroxypropylcellulose) (HPC).
Where [8] appears, read: dose: 60.0 mg/kg/injection, schedule: Q01DX005 (ip), vehicle: saline with Tween-80.
The mark [9] stands for this setting: dose: 120.0 mg/kg/injection, schedule: Q01DX005 (ip), vehicle: saline with Tween-80.
The mark [10] stands for this setting: dose: 100.0 mg/kg/injection, schedule: Q04DX003 (ip), vehicle: saline with Tween-80.
Where [11] appears, read: dose: 200.0 mg/kg/injection, schedule: Q01DX005 (ip), vehicle: Klucel (hydroxypropylcellulose) (HPC).

The structures appear in SMILES notation. “And” between values parts separate entries of the source, which are not always exact repeats. Identical values can stand only once. Toxic doses and inconclusive results are not listed.

In the case of `CCC(C)(Oc1ccc(Cc2ccc(Cl)cc2)cc1)C(=O)OCc1cccnc1` (configuration not stated), the T/C is 95 % of control (dose: 50.0 mg/kg/injection, schedule: Q01DX009 (ip), vehicle: suspension in saline); 95 % of control (dose: 100.0 mg/kg/injection, schedule: Q01DX009 (ip), vehicle: suspension in saline); 94 % of control (dose: 200.0 mg/kg/injection, schedule: Q01DX009 (ip), vehicle: suspension in saline).

Take `CCn1c(=O)c2c(N(C)C)snc2n(CC)c1=O`: the T/C is 96 % of control (dose: 50.0 mg/kg/injection, schedule: Q01DX009 (ip), vehicle: saline); 107 % of control (dose: 100.0 mg/kg/injection, schedule: Q01DX009 (ip), vehicle: saline); 110 % of control (dose: 200.0 mg/kg/injection, schedule: Q01DX009 (ip), vehicle: saline).

As to `CC(=O)Nc1[c-]cccc1.CC(=O)Nc1[c-]cccc1.CC(=O)O.CC(=O)O.[Pd].[Pd]`, the T/C by setting is: (dose: 6.25 mg/kg/injection, schedule: Q01DX005 (ip), vehicle: saline with Tween-80) 94 % of control; (dose: 12.5 mg/kg/injection, schedule: Q01DX005 (ip), vehicle: saline with Tween-80) 95 % of control and 98 % of control; (dose: 25.0 mg/kg/injection, schedule: Q01DX005 (ip), vehicle: saline with Tween-80) 119 % of control and 98 % of control; under setting [1], 100 % of control and 110 % of control.

Regarding `O=c1[nH]c2cc(Cl)ccc2c(CCl)c1Cl`, the T/C under setting [2] was 110 % of control and the T/C under setting [3] was 110 % of control.

With `ClCCCCCCOC1CCCCO1` (configuration not stated), the T/C was 110 % of control under setting [3], 106 % of control under setting [4] and 97 % of control under setting [5].

On to `O=C(Nc1cccc(C(F)(F)F)c1)OC1CC2CC1C1CC3OC3C21` (configuration not stated), for which the T/C is 93 % of control under setting [6] and 87 % of control under setting [7].

Turning to `CCOC(=O)NC(=N/C(=C/c1cccc(C)n1)c1ccccc1)c1ccccc1`, the T/C by setting is: (dose: 60.0 mg/kg/injection, schedule: Q01DX005 (ip), vehicle: Klucel (hydroxypropylcellulose) (HPC)) 93 % of control; (dose: 120.0 mg/kg/injection, schedule: Q01DX005 (ip), vehicle: Klucel (hydroxypropylcellulose) (HPC)) 91 % of control.

In the case of `Nc1nncs1`, the T/C by setting is: (dose: 6.25 mg/kg/injection, schedule: Q01DX009 (ip), vehicle: water) 107 % of control and 108 % of control and 94 % of control; (dose: 7.5 mg/kg/injection, schedule: Q01DX009 (ip), vehicle: water) 112 % of control; (dose: 15.0 mg/kg/injection, schedule: Q01DX009 (ip), vehicle: water) 101 % of control; (dose: 20.0 mg/kg/injection, schedule: Q01DX005 (ip), vehicle: saline) 103 % of control and 109 % of control; (dose: 30.0 mg/kg/injection, schedule: Q01DX009 (ip), vehicle: water) 117 % of control; (dose: 40.0 mg/kg/injection, schedule: Q01DX005 (ip), vehicle: saline) 122 % of control. Further, the T/C runs as follows: (dose: 80.0 mg/kg/injection, schedule: Q01DX005 (ip), vehicle: saline) 172 % of control and 188 % of control; (dose: 120.0 mg/kg/injection, schedule: Q01DX009 (ip), vehicle: water) 104 % of control; (dose: 160.0 mg/kg/injection, schedule: Q01DX005 (ip), vehicle: saline) 69 % of control.

For `Nc1cc(-c2ccccc2)nn1-c1nnc(-c2ccccc2)c(-c2ccccc2)n1`, the T/C is, setting by setting: under setting [1], 95 % of control; (dose: 100.0 mg/kg/injection, schedule: Q01DX005 (ip), vehicle: saline with Tween-80) 100 % of control; (dose: 200.0 mg/kg/injection, schedule: Q01DX005 (ip), vehicle: saline with Tween-80) 95 % of control.

For `OC1(c2ccccc2)CCN(c2c3ccccc3nc3ccccc23)CC1`, the T/C runs as follows: (dose: 100.0 mg/kg/injection, schedule: Q04DX002 (ip), vehicle: Klucel (hydroxypropylcellulose) (HPC)) 118 % of control; (dose: 200.0 mg/kg/injection, schedule: Q04DX002 (ip), vehicle: Klucel (hydroxypropylcellulose) (HPC)) 119 % of control.

Regarding `Cc1nc2cc(N)c(Cl)cc2[nH]1`, the T/C by setting is: under setting [8], 104 % of control; under setting [9], 107 % of control.

As to `COC(=O)C1(C)CCC=CC1Sc1ccccc1` (configuration not stated), the T/C is 100 % of control (dose: 100.0 mg/kg/injection, schedule: Q04DX003 (ip), vehicle: Klucel (hydroxypropylcellulose) (HPC)); 105 % of control (dose: 200.0 mg/kg/injection, schedule: Q04DX003 (ip), vehicle: Klucel (hydroxypropylcellulose) (HPC)); 99 % of control (dose: 400.0 mg/kg/injection, schedule: Q04DX003 (ip), vehicle: Klucel (hydroxypropylcellulose) (HPC)).

On to `c1ccc(-c2nnc3ccccc3n2)cc1`, for which the T/C is, setting by setting: under setting [2], 99 % of control; under setting [3], 98 % of control; under setting [4], 98 % of control; under setting [5], 93 % of control.

Regarding `Oc1c(CN2CCCC2)cc(Nc2cc(/C=C/c3ccc(Cl)cc3)nc(/C=C\c3ccc(Cl)cc3)n2)cc1CN1CCCC1`, the T/C (dose: 0.62 mg/kg/injection, schedule: Q01DX009 (ip), vehicle: saline with Tween-80) is 103 % of control; the T/C (dose: 1.25 mg/kg/injection, schedule: Q01DX009 (ip), vehicle: saline with Tween-80) is 112 % of control; the T/C (dose: 2.5 mg/kg/injection, schedule: Q01DX009 (ip), vehicle: saline with Tween-80) is 105 % of control; the T/C (dose: 5.0 mg/kg/injection, schedule: Q01DX009 (ip), vehicle: saline with Tween-80) is 106 % of control; the T/C (dose: 10.0 mg/kg/injection, schedule: Q01DX009 (ip), vehicle: saline with Tween-80) was 92 % of control.

On to `CN(C)c1ncnc2c1ncn2CC(O)CN` (configuration not stated), for which the T/C is 100 % of control (dose: 50.0 mg/kg/injection, schedule: Q01DX005 (ip), vehicle: distilled water + alcohol); 103 % of control (dose: 100.0 mg/kg/injection, schedule: Q01DX005 (ip), vehicle: distilled water + alcohol); 96 % of control (dose: 200.0 mg/kg/injection, schedule: Q01DX005 (ip), vehicle: distilled water + alcohol).

For `CC(=O)C1=C(C)NC(C)=C(C(C)=O)C1c1cccc([N+](=O)[O-])c1`, the T/C was 100 % of control (dose: 25.0 mg/kg/injection, schedule: Q04DX003 (ip), vehicle: saline with Tween-80); 100 % of control (dose: 50.0 mg/kg/injection, schedule: Q04DX003 (ip), vehicle: saline with Tween-80); 100 % of control and 91 % of control under setting [10].

As to `COc1ccc2ncc(COC(C)=O)c(COC(C)=O)c2c1`, the T/C under setting [6] was 99 % of control, the T/C under setting [7] was 98 % of control and the T/C under setting [11] was 102 % of control.

For `CCOC(=O)c1c(Cl)c(CC)c(Cl)n2c1nc1ccccc12`, the T/C under setting [8] is 97 % of control; the T/C under setting [9] was 93 % of control; the T/C (dose: 240.0 mg/kg/injection, schedule: Q01DX005 (ip), vehicle: saline with Tween-80) is 101 % of control.

For `O=C(N=Nc1c(Cl)c(O)c2ccccc2c1O)C(=O)Nc1cccc(C(F)(F)F)c1`, the T/C by setting is: (dose: 6.25 mg/kg/injection, schedule: Q01DX005 (ip), vehicle: Klucel (hydroxypropylcellulose) (HPC)) 107 % of control; (dose: 12.5 mg/kg/injection, schedule: Q01DX005 (ip), vehicle: Klucel (hydroxypropylcellulose) (HPC)) 107 % of control; (dose: 25.0 mg/kg/injection, schedule: Q01DX005 (ip), vehicle: Klucel (hydroxypropylcellulose) (HPC)) 107 % of control; under setting [6], 98 % of control.

`CC(=O)C(N=Nc1ccc(S(=O)(=O)N=C(N)N)cc1)C(C)=O`: the T/C is 90 % of control under setting [10]; 88 % of control (dose: 200.0 mg/kg/injection, schedule: Q04DX003 (ip), vehicle: saline with Tween-80); 87 % of control (dose: 400.0 mg/kg/injection, schedule: Q04DX003 (ip), vehicle: saline with Tween-80).

`C[Si](C)(CC[Si](C)(C)OS(C)(=O)=O)OS(C)(=O)=O`: the T/C reads like this: under setting [6], 101 % of control; under setting [7], 99 % of control; under setting [11], 89 % of control.

For `O=C(CC(NO)c1ccccc1)NO` (configuration not stated), the T/C is 99 % of control (dose: 50.0 mg/kg/injection, schedule: Q01DX009 (ip), vehicle: Klucel (hydroxypropylcellulose) (HPC)); 105 % of control (dose: 100.0 mg/kg/injection, schedule: Q01DX009 (ip), vehicle: Klucel (hydroxypropylcellulose) (HPC)); 115 % of control (dose: 200.0 mg/kg/injection, schedule: Q01DX009 (ip), vehicle: Klucel (hydroxypropylcellulose) (HPC)).
